How the values were obtained:
[1] = excess molar enthalpy (molar enthalpy of mixing); xn = mol fraction of the nth substance listed; conditions: 101 kPa, Liquid, Flow calorimetry
[2] = xn = mol fraction of the nth substance listed; conditions: 101 kPa, Liquid
[3] = 101.33 kPa, Liquid
[4] = refractive index (Na D-line) (dimensionless); conditions: 101.33 kPa, Liquid, Standard Abbe refractometry

CCCC[n+]1ccc(C)cc1.F[B-](F)(F)F [1-butyl-4-methylpyridinium tetrafluoroborate] + CCCO
Conditions | excess molar enthalpy [kcal/mol] | mass density [kg/m3]
[1], 298.15 K, x1 = 0.012 | 0.0315 | –
[1], 298.15 K, x1 = 0.0243 | 0.0516 | –
[1], 298.15 K, x1 = 0.0308 | 0.0719 | –
[1], 298.15 K, x1 = 0.3198 | 0.596 | –
[1], 298.15 K, x1 = 0.3532 | 0.588 | –
[1], 298.15 K, x1 = 0.3908 | 0.579 | –
[1], 298.15 K, x1 = 0.4344 | 0.56 | –
[1], 298.15 K, x1 = 0.4819 | 0.54 | –
[1], 298.15 K, x1 = 0.5374 | 0.505 | –
[1], 298.15 K, x1 = 0.6008 | 0.457 | –
[1], 298.15 K, x1 = 0.6734 | 0.394 | –
[1], 298.15 K, x1 = 0.752 | 0.315 | –
[1], 298.15 K, x1 = 0.8319 | 0.237 | –
[1], 298.15 K, x1 = 0.9181 | 0.138 | –
[1], 318.15 K, x1 = 0.0189 | 0.0927 | –
[1], 318.16 K, x1 = 0.054 | 0.229 | –
[1], 318.17 K, x1 = 0.093 | 0.351 | –
[1], 318.18 K, x1 = 0.1341 | 0.454 | –
[1], 318.19 K, x1 = 0.1775 | 0.543 | –
[1], 318.2 K, x1 = 0.2167 | 0.609 | –
[1], 318.21 K, x1 = 0.2312 | 0.641 | –
[1], 318.22 K, x1 = 0.2581 | 0.67 | –
[1], 318.23 K, x1 = 0.2912 | 0.692 | –
[1], 318.24 K, x1 = 0.331 | 0.708 | –
[1], 318.25 K, x1 = 0.3847 | 0.704 | –
[1], 318.26 K, x1 = 0.4488 | 0.69 | –
[1], 318.27 K, x1 = 0.5249 | 0.65 | –
[1], 318.28 K, x1 = 0.6069 | 0.585 | –
[1], 318.29 K, x1 = 0.6964 | 0.496 | –
[1], 318.3 K, x1 = 0.7815 | 0.405 | –
[1], 318.31 K, x1 = 0.846 | 0.309 | –
[1], 318.32 K, x1 = 0.9043 | 0.197 | –
[1], 318.33 K, x1 = 0.9568 | 0.104 | –
[2], 298.15 K, x1 = 0.0154 | – | 815.6
[2], 298.15 K, x1 = 0.0271 | – | 827.2
[2], 298.15 K, x1 = 0.2988 | – | 1006.8
[2], 298.15 K, x1 = 0.3987 | – | 1047.4
[2], 298.15 K, x1 = 0.4965 | – | 1079.8
[2], 298.15 K, x1 = 0.5972 | – | 1107.8
[2], 298.15 K, x1 = 0.6889 | – | 1129.1
[2], 298.15 K, x1 = 0.696 | – | 1130.6
[2], 298.15 K, x1 = 0.7812 | – | 1147.9
[2], 298.15 K, x1 = 0.8841 | – | 1165.9
[2], 318.15 K, x1 = 0.0549 | – | 837.6
[2], 318.15 K, x1 = 0.1008 | – | 875.1
[2], 318.15 K, x1 = 0.1969 | – | 939.6
[2], 318.15 K, x1 = 0.3103 | – | 997.6
[2], 318.15 K, x1 = 0.3828 | – | 1027.5
[2], 318.15 K, x1 = 0.4381 | – | 1047.4
[2], 318.15 K, x1 = 0.4534 | – | 1052.4
[2], 318.15 K, x1 = 0.4901 | – | 1064
[2], 318.15 K, x1 = 0.6039 | – | 1095.2
[2], 318.15 K, x1 = 0.6726 | – | 1111.2
[2], 318.15 K, x1 = 0.8248 | – | 1141.4
[2], 318.15 K, x1 = 0.8967 | – | 1156.9
[2], 318.15 K, x1 = 0.9191 | – | 1153.3

CCCC[n+]1ccc(C)cc1.F[B-](F)(F)F [1-butyl-4-methylpyridinium tetrafluoroborate] + CCCCO
Conditions | excess molar enthalpy [kcal/mol] | mass density [kg/m3]
[1], 318.15 K, x1 = 0.0242 | 0.112 | –
[1], 318.16 K, x1 = 0.0613 | 0.226 | –
[1], 318.17 K, x1 = 0.1029 | 0.339 | –
[1], 318.18 K, x1 = 0.1466 | 0.429 | –
[1], 318.19 K, x1 = 0.1938 | 0.527 | –
[1], 318.2 K, x1 = 0.24 | 0.601 | –
[1], 318.21 K, x1 = 0.2864 | 0.654 | –
[1], 318.22 K, x1 = 0.3344 | 0.694 | –
[1], 318.23 K, x1 = 0.3708 | 0.704 | –
[1], 318.24 K, x1 = 0.4149 | 0.707 | –
[1], 318.25 K, x1 = 0.4635 | 0.69 | –
[1], 318.26 K, x1 = 0.5162 | 0.667 | –
[1], 318.27 K, x1 = 0.5729 | 0.623 | –
[1], 318.28 K, x1 = 0.6488 | 0.542 | –
[1], 318.29 K, x1 = 0.7232 | 0.463 | –
[1], 318.3 K, x1 = 0.7962 | 0.361 | –
[1], 318.31 K, x1 = 0.8569 | 0.278 | –
[1], 318.32 K, x1 = 0.9006 | 0.195 | –
[1], 318.33 K, x1 = 0.9435 | 0.129 | –
[2], 298.15 K, x1 = 0.5948 | – | 1094.4
[2], 298.15 K, x1 = 0.692 | – | 1120.2
[2], 298.15 K, x1 = 0.739 | – | 1131.5
[2], 298.15 K, x1 = 0.7851 | – | 1141.8
[2], 298.15 K, x1 = 0.8916 | – | 1163.9
[2], 318.15 K, x1 = 0.0548 | – | 833.2
[2], 318.15 K, x1 = 0.1169 | – | 875.7
[2], 318.15 K, x1 = 0.2301 | – | 940.7
[2], 318.15 K, x1 = 0.3406 | – | 992.1
[2], 318.15 K, x1 = 0.4471 | – | 1033.5
[2], 318.15 K, x1 = 0.564 | – | 1071.4
[2], 318.15 K, x1 = 0.6758 | – | 1102.2
[2], 318.15 K, x1 = 0.7856 | – | 1128.1
[2], 318.15 K, x1 = 0.8427 | – | 1140
[2], 318.15 K, x1 = 0.887 | – | 1148.6

CCCC[n+]1ccc(C)cc1.F[B-](F)(F)F [1-butyl-4-methylpyridinium tetrafluoroborate] + CO
Conditions | excess molar enthalpy [kcal/mol] | mass density [kg/m3]
[1], 298.15 K, x1 = 0.0155 | 0.0607 | –
[1], 298.15 K, x1 = 0.0359 | 0.116 | –
[1], 298.15 K, x1 = 0.0582 | 0.159 | –
[1], 298.15 K, x1 = 0.0832 | 0.217 | –
[1], 298.15 K, x1 = 0.1111 | 0.27 | –
[1], 298.15 K, x1 = 0.1397 | 0.329 | –
[1], 298.15 K, x1 = 0.1698 | 0.377 | –
[1], 298.15 K, x1 = 0.1711 | 0.392 | –
[1], 298.15 K, x1 = 0.1953 | 0.415 | –
[1], 298.15 K, x1 = 0.2214 | 0.435 | –
[1], 298.15 K, x1 = 0.2412 | 0.453 | –
[1], 298.15 K, x1 = 0.2755 | 0.469 | –
[1], 298.15 K, x1 = 0.3109 | 0.48 | –
[1], 298.15 K, x1 = 0.3617 | 0.475 | –
[1], 298.15 K, x1 = 0.427 | 0.453 | –
[1], 298.15 K, x1 = 0.507 | 0.411 | –
[1], 298.15 K, x1 = 0.6029 | 0.35 | –
[1], 298.15 K, x1 = 0.7161 | 0.272 | –
[1], 298.15 K, x1 = 0.8469 | 0.154 | –
[1], 318.2 K, x1 = 0.0102 | 0.0337 | –
[1], 318.21 K, x1 = 0.0238 | 0.0662 | –
[1], 318.22 K, x1 = 0.0405 | 0.098 | –
[1], 318.23 K, x1 = 0.0635 | 0.178 | –
[1], 318.24 K, x1 = 0.0898 | 0.261 | –
[1], 318.25 K, x1 = 0.1174 | 0.336 | –
[1], 318.26 K, x1 = 0.1476 | 0.403 | –
[1], 318.27 K, x1 = 0.1778 | 0.457 | –
[1], 318.28 K, x1 = 0.1969 | 0.498 | –
[1], 318.29 K, x1 = 0.2103 | 0.529 | –
[1], 318.3 K, x1 = 0.2392 | 0.559 | –
[1], 318.31 K, x1 = 0.2699 | 0.579 | –
[1], 318.32 K, x1 = 0.3021 | 0.603 | –
[1], 318.33 K, x1 = 0.3442 | 0.61 | –
[1], 318.34 K, x1 = 0.3846 | 0.619 | –
[1], 318.35 K, x1 = 0.4397 | 0.614 | –
[1], 318.36 K, x1 = 0.4968 | 0.595 | –
[1], 318.37 K, x1 = 0.5563 | 0.57 | –
[1], 318.38 K, x1 = 0.6281 | 0.533 | –
[1], 318.39 K, x1 = 0.7109 | 0.466 | –
[1], 318.4 K, x1 = 0.8042 | 0.362 | –
[1], 318.41 K, x1 = 0.8793 | 0.239 | –
[1], 318.42 K, x1 = 0.9607 | 0.0937 | –
[2], 298.15 K, x1 = 0.0539 | – | 880.6
[2], 298.15 K, x1 = 0.0819 | – | 916.2
[2], 298.15 K, x1 = 0.095 | – | 931.5
[2], 298.15 K, x1 = 0.1078 | – | 944.4
[2], 298.15 K, x1 = 0.1549 | – | 984.7
[2], 298.15 K, x1 = 0.2038 | – | 1017.3
[2], 298.15 K, x1 = 0.3016 | – | 1064.3
[2], 298.15 K, x1 = 0.3729 | – | 1088.5
[2], 298.15 K, x1 = 0.4548 | – | 1110.8
[2], 298.15 K, x1 = 0.5027 | – | 1120.9
[2], 298.15 K, x1 = 0.5533 | – | 1131.2
[2], 298.15 K, x1 = 0.6076 | – | 1140.4
[2], 298.15 K, x1 = 0.7174 | – | 1155.8
[2], 298.15 K, x1 = 0.8053 | – | 1165.6
[2], 298.15 K, x1 = 0.9129 | – | 1176
[2], 318.15 K, x1 = 0.0489 | – | 855.9
[2], 318.15 K, x1 = 0.096 | – | 915.9
[2], 318.15 K, x1 = 0.1439 | – | 961.3
[2], 318.15 K, x1 = 0.1894 | – | 994.2
[2], 318.15 K, x1 = 0.3003 | – | 1049.4
[2], 318.15 K, x1 = 0.3551 | – | 1068.5
[2], 318.15 K, x1 = 0.4349 | – | 1091.7
[2], 318.15 K, x1 = 0.4888 | – | 1103.9
[2], 318.15 K, x1 = 0.5342 | – | 1112.7
[2], 318.15 K, x1 = 0.5959 | – | 1123.9
[2], 318.15 K, x1 = 0.6592 | – | 1133.5
[2], 318.15 K, x1 = 0.7266 | – | 1142.3
[2], 318.15 K, x1 = 0.8378 | – | 1154.8
[2], 318.15 K, x1 = 0.9046 | – | 1161.4

CCCC[n+]1ccc(C)cc1.F[B-](F)(F)F [1-butyl-4-methylpyridinium tetrafluoroborate] + CCCCCO
[2], 318.15 K
Conditions | mass density [kg/m3]
x1 = 0.5651 | 1060.4
x1 = 0.6035 | 1072.1
x1 = 0.6715 | 1091.9
x1 = 0.7601 | 1115.3
x1 = 0.8041 | 1126.1
x1 = 0.8616 | 1139.6
x1 = 0.912 | 1150.8

CCCC[n+]1ccc(C)cc1.F[B-](F)(F)F [1-butyl-4-methylpyridinium tetrafluoroborate]
Conditions | mass density, [3] [kg/m3] | refractive index, [4]
298.15 K | 1183.49 | 1.4517
318.15 K | 1169.12 | 1.447

Source: the NIST ThermoML archive (doi:10.1016/j.jct.2008.02.019)
